{
  "source": "patent US20100120907A1",
  "about": "“DERIVATIVES OF AMYRIS ALCOHOLS AND EUDESMOL FOR TREATING COLD SORES AND HERPES” (priority 2007, published 2010)",
  "origin": "cited, not measured here",
  "key": {"[1]": {"system": "cold sores", "conditions": "topical cream"}, "[2]": {"target": "omega-agatoxin IVA-sensitive (P/Q-type) Ca^2+ channel (Rattus norvegicus, UniProt P54282)", "sequence (P54282 whole entry)": "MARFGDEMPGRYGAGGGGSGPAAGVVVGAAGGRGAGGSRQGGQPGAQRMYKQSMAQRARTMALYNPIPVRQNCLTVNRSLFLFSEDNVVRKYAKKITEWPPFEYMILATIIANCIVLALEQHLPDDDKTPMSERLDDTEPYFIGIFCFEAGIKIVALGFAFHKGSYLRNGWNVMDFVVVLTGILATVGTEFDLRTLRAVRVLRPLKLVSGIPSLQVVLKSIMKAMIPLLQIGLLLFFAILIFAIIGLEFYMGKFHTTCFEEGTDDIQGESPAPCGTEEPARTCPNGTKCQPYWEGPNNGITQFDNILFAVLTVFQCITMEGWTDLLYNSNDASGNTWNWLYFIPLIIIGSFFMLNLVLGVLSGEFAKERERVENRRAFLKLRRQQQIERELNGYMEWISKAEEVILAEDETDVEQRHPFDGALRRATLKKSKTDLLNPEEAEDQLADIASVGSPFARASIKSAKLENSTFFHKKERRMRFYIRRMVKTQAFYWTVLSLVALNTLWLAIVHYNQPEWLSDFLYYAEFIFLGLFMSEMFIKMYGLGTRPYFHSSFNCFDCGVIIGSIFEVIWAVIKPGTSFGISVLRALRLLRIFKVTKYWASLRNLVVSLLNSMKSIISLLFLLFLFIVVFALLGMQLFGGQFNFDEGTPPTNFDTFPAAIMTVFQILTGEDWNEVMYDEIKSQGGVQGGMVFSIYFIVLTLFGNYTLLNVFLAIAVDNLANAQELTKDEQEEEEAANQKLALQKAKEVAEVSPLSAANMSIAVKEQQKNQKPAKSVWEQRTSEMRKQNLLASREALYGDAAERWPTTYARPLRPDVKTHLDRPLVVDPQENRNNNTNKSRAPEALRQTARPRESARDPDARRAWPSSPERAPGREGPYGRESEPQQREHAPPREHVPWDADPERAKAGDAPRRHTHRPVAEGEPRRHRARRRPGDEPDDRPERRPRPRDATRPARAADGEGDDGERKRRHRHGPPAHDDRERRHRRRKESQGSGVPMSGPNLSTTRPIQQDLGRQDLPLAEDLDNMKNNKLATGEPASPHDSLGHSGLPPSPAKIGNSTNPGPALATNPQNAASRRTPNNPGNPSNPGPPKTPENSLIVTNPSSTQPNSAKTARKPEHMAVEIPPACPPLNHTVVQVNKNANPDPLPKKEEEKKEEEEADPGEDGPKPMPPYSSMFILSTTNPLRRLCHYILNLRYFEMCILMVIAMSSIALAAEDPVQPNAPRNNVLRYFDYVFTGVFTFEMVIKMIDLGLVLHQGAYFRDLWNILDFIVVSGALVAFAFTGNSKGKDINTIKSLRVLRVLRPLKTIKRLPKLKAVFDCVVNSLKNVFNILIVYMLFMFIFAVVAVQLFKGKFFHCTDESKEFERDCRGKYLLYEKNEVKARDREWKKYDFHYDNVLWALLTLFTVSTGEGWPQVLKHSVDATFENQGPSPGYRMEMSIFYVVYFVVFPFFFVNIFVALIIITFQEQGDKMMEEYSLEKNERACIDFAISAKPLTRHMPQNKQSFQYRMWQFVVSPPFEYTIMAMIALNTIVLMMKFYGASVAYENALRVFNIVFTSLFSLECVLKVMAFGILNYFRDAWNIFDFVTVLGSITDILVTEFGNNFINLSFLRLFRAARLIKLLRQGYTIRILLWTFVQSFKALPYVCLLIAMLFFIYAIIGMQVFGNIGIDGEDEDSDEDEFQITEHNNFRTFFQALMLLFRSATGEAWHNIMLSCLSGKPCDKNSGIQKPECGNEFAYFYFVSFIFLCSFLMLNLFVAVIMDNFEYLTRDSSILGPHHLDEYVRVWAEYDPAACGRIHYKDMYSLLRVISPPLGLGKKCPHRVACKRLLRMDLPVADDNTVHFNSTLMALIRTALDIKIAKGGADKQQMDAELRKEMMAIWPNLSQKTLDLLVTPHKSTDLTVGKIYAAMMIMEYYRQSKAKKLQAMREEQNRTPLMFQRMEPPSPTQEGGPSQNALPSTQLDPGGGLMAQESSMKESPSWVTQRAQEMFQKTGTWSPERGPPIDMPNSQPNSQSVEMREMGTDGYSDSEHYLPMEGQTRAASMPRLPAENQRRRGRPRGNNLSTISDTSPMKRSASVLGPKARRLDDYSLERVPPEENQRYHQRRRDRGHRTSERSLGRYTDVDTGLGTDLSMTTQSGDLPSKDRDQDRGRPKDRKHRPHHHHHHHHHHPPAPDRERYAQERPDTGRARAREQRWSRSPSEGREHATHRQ"}, "[3]": {"system": "neurogenic inflammation", "conditions": "following electrical stimulation of rat trigeminal ganglion"}, "[4]": {"target": "nicotinic ACh receptor channel (Homo sapiens, UniProt P02708+P11230+Q04844+Q07001)", "sequence (P02708 21-457)": "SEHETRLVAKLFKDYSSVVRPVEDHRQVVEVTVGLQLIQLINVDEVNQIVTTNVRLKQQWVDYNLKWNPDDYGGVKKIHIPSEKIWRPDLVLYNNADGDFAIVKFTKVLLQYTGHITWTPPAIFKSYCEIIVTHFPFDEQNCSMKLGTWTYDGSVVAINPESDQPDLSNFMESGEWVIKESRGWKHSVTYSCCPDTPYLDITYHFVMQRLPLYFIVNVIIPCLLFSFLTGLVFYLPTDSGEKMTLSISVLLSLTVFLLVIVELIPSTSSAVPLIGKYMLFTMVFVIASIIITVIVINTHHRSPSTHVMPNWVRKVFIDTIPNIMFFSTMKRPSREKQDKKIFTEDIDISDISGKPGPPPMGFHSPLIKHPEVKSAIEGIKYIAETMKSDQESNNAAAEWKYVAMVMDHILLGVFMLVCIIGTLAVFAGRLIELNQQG", "sequence (P11230 24-501)": "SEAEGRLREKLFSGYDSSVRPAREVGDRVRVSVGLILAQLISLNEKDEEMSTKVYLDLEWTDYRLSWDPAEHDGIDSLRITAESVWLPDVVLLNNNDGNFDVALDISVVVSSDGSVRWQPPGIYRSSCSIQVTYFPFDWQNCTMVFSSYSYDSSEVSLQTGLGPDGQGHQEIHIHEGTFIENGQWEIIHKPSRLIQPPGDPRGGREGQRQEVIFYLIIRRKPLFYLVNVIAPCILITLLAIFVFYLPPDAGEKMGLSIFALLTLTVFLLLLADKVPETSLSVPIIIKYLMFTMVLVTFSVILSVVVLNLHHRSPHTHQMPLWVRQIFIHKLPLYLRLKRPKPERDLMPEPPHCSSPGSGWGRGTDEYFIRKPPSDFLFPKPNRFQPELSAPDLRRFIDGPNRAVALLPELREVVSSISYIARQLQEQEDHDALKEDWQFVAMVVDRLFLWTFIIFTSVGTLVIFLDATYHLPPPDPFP", "sequence (Q07001 22-517)": "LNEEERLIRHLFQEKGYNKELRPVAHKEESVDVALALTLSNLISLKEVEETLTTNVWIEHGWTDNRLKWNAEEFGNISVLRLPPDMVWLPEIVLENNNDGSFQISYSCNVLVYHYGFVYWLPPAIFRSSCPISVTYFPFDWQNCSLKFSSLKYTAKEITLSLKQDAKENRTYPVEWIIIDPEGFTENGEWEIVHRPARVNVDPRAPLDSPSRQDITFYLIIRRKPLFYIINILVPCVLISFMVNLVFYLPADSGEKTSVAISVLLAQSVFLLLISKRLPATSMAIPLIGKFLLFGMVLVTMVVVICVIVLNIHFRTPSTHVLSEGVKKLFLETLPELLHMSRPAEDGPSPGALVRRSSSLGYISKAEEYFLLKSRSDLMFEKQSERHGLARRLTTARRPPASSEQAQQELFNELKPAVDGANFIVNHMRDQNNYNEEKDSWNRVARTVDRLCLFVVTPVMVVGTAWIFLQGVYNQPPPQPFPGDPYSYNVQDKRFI", "sequence (Q04844 21-493)": "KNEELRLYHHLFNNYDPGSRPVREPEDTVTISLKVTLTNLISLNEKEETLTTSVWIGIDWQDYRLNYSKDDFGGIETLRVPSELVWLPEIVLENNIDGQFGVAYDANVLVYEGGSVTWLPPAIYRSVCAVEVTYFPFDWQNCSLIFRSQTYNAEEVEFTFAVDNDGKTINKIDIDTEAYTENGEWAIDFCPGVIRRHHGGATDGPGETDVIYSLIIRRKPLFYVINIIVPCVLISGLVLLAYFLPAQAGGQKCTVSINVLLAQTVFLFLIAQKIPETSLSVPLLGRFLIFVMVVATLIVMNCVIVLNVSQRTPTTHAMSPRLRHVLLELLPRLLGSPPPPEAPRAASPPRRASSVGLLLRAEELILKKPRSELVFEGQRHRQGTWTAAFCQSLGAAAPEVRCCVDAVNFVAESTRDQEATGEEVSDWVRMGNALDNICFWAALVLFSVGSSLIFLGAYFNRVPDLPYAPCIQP"}, "[5]": {"system": "extracellular signal-regulated kinase (ERK) ½", "conditions": "100 microM"}, "[6]": {"system": "human umbilical vein endothelial cells (HUVEC)"}, "[7]": {"system": "porcine brain microvascular endothelial cells", "conditions": "50-100 microM"}, "[8]": {"system": "Na^+, K(+)-ATPase", "conditions": "among the various kinds of phosphatases examined"}, "[9]": {"system": "angiogenesis", "conditions": "mice"}, "[10]": {"system": "PC-12 cells"}, "[11]": {"system": "skin papillomas", "conditions": "DMBA-initiated, TPA-promoted, mice"}, "[12]": {"system": "ornithine decarboxylase (ODC)", "conditions": "mice"}},
  "data": [
    {"compound": "Nc1nc2c(ncn2COCCO)c(=O)[nH]1", "note": "[Acyclovir]", "values": [
      {"measurement": "reduction of healing time / duration of cold sores", "setting": "[1]", "value": "up to ½"}
    ]},
    {"compound": "CC1=CCC[C@]2(C)CC[C@@H](C(C)(C)O)C[C@@H]12", "note": "[α-eudesmol]", "values": [
      {"measurement": "inhibition of P/Q-type Ca2+ channel", "setting": "[2]", "value": "potently inhibits"},
      {"measurement": "inhibition of neurogenic inflammation", "setting": "[3]", "value": "potently inhibits"}
    ]},
    {"compound": "C=C1CCC[C@]2(C)CC[C@@H](C(C)(C)O)C[C@@H]12", "note": "[β-eudesmol]", "values": [
      {"measurement": "block of nicotinic ACh receptor channel", "setting": "[4]", "value": "blocked the nicotinic ACh receptor channel in both the open and closed conformations"},
      {"measurement": "desensitization of the nicotinic ACh receptor", "setting": "[4]", "value": "accelerated the desensitization"},
      {"measurement": "phosphorylation of ERK ½ induced by bFGF or vascular endothelial growth factor", "setting": "[5]", "value": "blocked"},
      {"measurement": "HUVEC migration stimulated by bFGF", "setting": "[6]", "value": "inhibited"},
      {"measurement": "tube formation by HUVEC in Matrigel", "setting": "[6]", "value": "inhibited"},
      {"measurement": "proliferation", "setting": "[6]; 50-100 microM", "value": "inhibited"},
      {"measurement": "proliferation", "setting": "[7]", "value": "inhibited"},
      {"measurement": "inhibition of Na+,K+-ATPase activity", "setting": "[8]", "value": "most strongly"},
      {"measurement": "angiogenesis in subcutaneously implanted Matrigel plugs and in adjuvant-induced granuloma", "setting": "[9]", "value": "significantly inhibited"},
      {"measurement": "neurite extension", "setting": "[10]; 100 and 150 μM", "value": "significantly induced neurite extension"},
      {"measurement": "[3H]thymidine incorporation", "setting": "[10]; at the highest concentration (150 μM)", "value": "suppression"}
    ]},
    {"compound": "santalol", "values": [
      {"measurement": "decrease of papilloma incidence", "setting": "[11]", "value": 67, "unit": "%"},
      {"measurement": "decrease of papilloma multiplicity", "setting": "[11]", "value": 96, "unit": "%"},
      {"measurement": "decrease of TPA-induced ODC activity", "setting": "[12]", "value": 70, "unit": "%"}
    ]}
  ]
}
